What was measured:
[1] = test system: TGF-β cytokine released from Aspc1 cells; assay: ELISA of TGF-β cytokine concentration in Aspc1 culture media; format: cell-based; conditions: 50 ng/ml TGF-β plus peptide, 48 hours, FIG. 6
Method: Specifically, the pancreatic cancer cell line Aspc1 was seeded in a 96-well plate at a density of 2×10^4 cells/well, cultured for one day, and then treated with 50 ng/ml of TGF-β or TGF-β plus inhibitor (candidate peptide and control peptide) for 48 hours, and then the concentrations of the TGF-β cytokine in the cancer cell culture media were analyzed by ELISA technique using a TGF-β detection ELISA kit. The concentration of the extracellularly released TGF-β cytokine was determined by measuring the absorbance with a multiplate reader, and the results were graphed.

[2] = test system: pSmad2/3 in Aspc1 cells; assay: Western blotting of pSmad2/3 expression level in Aspc1 cells; format: cell-based; conditions: TGF-β plus candidate peptide, 24 hours, FIG. 7
Method: Specifically, in order to analyze the time-dependent expression of phospho-Smad2/3 in cells by Western blotting assay, each of pancreatic cancer cell lines Bxpc3 and Aspc1 was treated with TGF-β cytokine at 50 ng/ml, and then cells obtained at different times were lysed by adding a cell lysis buffer containing a protease inhibitor (Thermo Scientific), and then sampled, thus preparing samples for Western blotting. Each of the samples was electrophoresed on SDS-PAGE gel, transferred to nitrocellulose membranes, and then blocked using skim milk powder. […] Then, the membranes were visualized by chemiluminescence using a Western ECL substrate (Thermo Scientific), and the obtained luminescence images were analyzed with Chemidoc (BioRad).
Specifically, each of the pancreatic cancer cell lines Aspc1, Bxpc3 and Panc1 was seeded in a 6-well plate at a density of 1×10^6 cells/well and cultured for one day. The next day, the cells were treated with TGF-β or TGF-β plus candidate peptide for 24 hours (control: 15% ACN—candidate peptide solvent, DMSO—P144 peptide solvent, P144), and the expression levels of pSmad2/3 and total Smad2/3 were analyzed by the Western blotting method described in Example 2.

Sequence | inhibition of extracellular release of TGF-β cytokine [1] | inhibition of expression level of pSmad2/3 [2]
FCLGPCPYIWCLDTF (P5) [candidate peptide derived from TGF-β, target TGFβRI/II] | directly inhibited the extracellular release of TGF-β cytokine | –
FCLGPCPYIWCLDTVLSL (P7) [candidate peptide derived from TGF-β, target TGFβRI/II] | directly inhibited the extracellular release of TGF-β cytokine | –
FCLGPCPYIWSLDTVLSL (P6) [candidate peptide derived from TGF-β, target TGFβRI/II] | directly inhibited the extracellular release of TGF-β cytokine | best ability to inhibit the expression level of pSmad2/3
TIVYYVVIKPKVEQ (P14) [candidate peptide derived from TGF-β, target TGFβRII] | directly inhibited the extracellular release of TGF-β cytokine | –

From patent publication US20240067686A1, “NOVEL PEPTIDE CAPABLE OF INHIBITING TGF-ß SIGNALING AND USE THEREOF” (Korea Institute of Science and Technology, priority 2020, published 2024)
